Data taken from patent publication US20200338028A1, “BENZENESULFONAMIDE DERIVATIVES AND METHOD FOR MODULATING LIPID RAFT” (Gongwin Biopharm Co., Ltd., priority 2017, published 2020).
pIC50: −log10 of the molar value.

What was measured:
PC-3 cells = assay: Western blot of Bcl-2 family members, cell cycle regulators and Akt/mTOR/p70S6K pathway signals; type: cell-based, human
Experimental: (§1) In addition, protein expression assay of each Mcl-1, Bcl-2, Bid, PUMA and Bak was performed by western blotting with methods described as follows. After treatment of PC-3 and DU145 cells with p-TSA, the cells were harvested with trypsinization, centrifuged and lysed in 0.1 ml of lysis buffer containing 10 mM Tris-HCl (pH 7.4), 150 mM NaCl, 1 mM EGTA, 1% Triton X-100, 1 mM PMSF, 10 μg/ml leupeptin, 10 μg/ml aprotinin, 50 mM NaF and 100 μM sodium orthovanadate. Total protein was quantified, mixed with the sample buffer and boiled at 90° C. for 5 min. Equal amount of protein (30 μg) was separated by electrophoresis in 8% or 12% SDS-PAGE, transferred to PVDF membranes and detected with specific antibodies (1:1000 dilution) for each of Mcl-1, Bcl-2, Bid, PUMA and Bak proteins. The immunoreactive proteins after incubation with appropriately labeled secondary antibody (1:3000 dilution) were detected with an enhanced chemiluminescence detection kit (Amersham, Buckinghamshire, United Kingdom). […] These effects were correlated with the mitochondrial stress.
(§2) During G1 phase, cells grow in size and synthesize mRNA and proteins which are necessary to DNA synthesis. The serine/threonine kinases mTOR and p70S6K that regulate protein synthesis (mRNA translation) through affecting the phosphorylation or activities of several downstream translation factors are critical regulators in G1 phase. Protein expression assay of each Akt, mTOR 4E-BP1 and p70S6K was performed by Western blotting.

DU-145 cells [1] = assay: as above; type: cell-based, human
Experimental: as §1, §2

DU-145 cells [2] = assay: SRB assay, anti-proliferative effect; type: cell-based; details: Homo sapiens; DU-145, SRB assay, FIG. 1A; read-out: IC50, inhibition of cell growth
Experimental: Two castration-resistant prostate cancer (CRPC) cell lines of PC-3 and DU-145 were cultured in RPMI 1640 medium with 5% FBS (v/v), penicillin (100 units/ml) and streptomycin (100 μg/ml). Cultures were maintained in a 37° C. incubator with 5% CO2, and adherent cultures were passaged using 0.05% trypsin-EDTA when they reached about 80% confluence. Prostate cells were from human tissue samples which were obtained following informed consent of the donors and after full review by the Ethics Review Committee at National Taiwan University Hospital. The prostate specimens were from males by transurethral resection of the prostate. All patients with prostatism histories were diagnosed to have benign prostate hyperplasia by rectal digital examination, transrectal sonography of prostate and urodynamic studies. […] SRB assay is an accurate and reproducible assay based upon quantitative SRB staining of cellular proteins, and the process for SRB assay was performed as follows. […] The absorbance of SRB was measured at a wavelength of 515 nm at the time of p-TSA addition (hereinafter referred to as time zero, TZ), and after additional incubation of DMSO (hereinafter referred to as control growth, CTL) or p-TSA (hereinafter referred to as Tx). The percentage of cell growth inhibition was calculated by the formula of [1−(Tx−TZ)/(CTL−TZ)]×100%. […]

Cc1ccc(S(N)(=O)=O)cc1 [p-TSA, para-toluenesulfonamide]
phosphorylation of Akt (PC-3 cells; PC-3, 6 mM p-TSA): inhibited
Rb phosphorylation (PC-3 cells; PC-3, 6 mM p-TSA, FIG. 3A): decrease
cyclin D1 protein expression (PC-3 cells; PC-3, 6 mM p-TSA, FIG. 3A): decrease
p21 and p27 expression (PC-3 cells; PC-3, 6 mM p-TSA, FIG. 3A): neither p21 nor p27 expression was modified
phosphorylation of mTOR, 4E-BP1 and p70S6K (PC-3 cells; PC-3, 6 mM p-TSA, FIGS. 3B and 3C): inhibitory effect
expressions of PUMA and Bak (PC-3 cells; PC-3, 24 h, Western blot): increase
phosphorylation of Akt (DU-145 cells [1]; DU-145, 6 mM p-TSA): not modified
p21 and p27 expression (DU-145 cells [1]; DU-145, 6 mM p-TSA, FIG. 3A): neither p21 nor p27 expression was modified
phosphorylation of mTOR, 4E-BP1 and p70S6K (DU-145 cells [1]; DU-145, 6 mM p-TSA, FIGS. 3B and 3C): inhibitory effect
expressions of PUMA and Bak (DU-145 cells [1]; DU-145, 24 h, Western blot): increase
protein expression of Mcl-1 (DU-145 cells [1]; DU-145, 24 h, Western blot, FIG. 2D): significantly decreased
cyclin D1 protein expression (DU-145 cells [1]; Rb-mutant DU-145, 6 mM p-TSA, FIG. 3A): decrease
pIC50 (DU-145 cells [2]): ~2.52
